Consider ten compounds from patent US10913710B2, “Benzene disulfonamide for the treatment of cancer” (priority 2017, dated 2021).

As a reminder, the Papp A→B is the apparent permeability from the apical to the basolateral side of a cell layer. Low values mean poor permeation, high ones ready permeation. The term Papp B→A denotes how fast a substance crosses the layer from the basolateral side. The term efflux ratio denotes the permeability from basolateral to apical divided by that in the opposite direction, in the common usage.

The nature of one data set: in vitro. Particulars: human, Caco-2, pH 6.5. The procedure: (§1) Caco-2 Permeability Assay:
(§2) The compound concentration was measured in the receiver as well as the donor well.

The subject of data set [1] is human peripheral blood mononuclear cells (hPMPBC). The data set is described as follows: Cytotoxicity assay with human peripheral blood mononuclear cells. Format: cell-based. The protocol:
Cells were incubated with test substances at titrated concentrations ranging between 30 μM and 1.7 nM for 72 h. After the incubation period, the cells were fixed with 10% (wt/vol) trichloroacetic acid and stained for 30 min with sulforhodamine B (SRB) staining solution prior to removing unbound dye by washing repeatedly with 1% (vol/vol) acetic acid. The protein-bound dye is dissolved in 10 mM Tris base solution for OD (optical density) determination at 510 nm using a microplate reader.

The subject of data set [2] is colorectal cancer cell lines DiFi, HCT-116, Hke3, Hkh2, HT29 and SW480. The experiment in a line: Real time cell analysis (RTCA) proliferation of colorectal cancer cell lines. Format: cell-based, human.
Data set [3] has as its target T1, PDEδ (Homo sapiens (Human), UniProt O43924). The data set is described as follows: Fluorescence polarization competition binding assay: displacement titration of labeled Atorvastatin probe for KD. Particulars: fluorescence polarization assay; activity classes; read-out: KD. The procedure: Example D.2: Displacement Titrations of Labeled Atorvastatin-Probe for the Determination of KD Values
Displacement Titrations of Labeled Atorvastatin-Probe for the Determination of KD Values:
The purification was followed by size exclusion gel filtration on a Superdex 75 S26/60 column using buffer A (25 mM Tris-HCl, pH 7.5, 150 mM NaCl and 3 mM DTE).
For orientation: Fluorescence polarisation rises when a labelled molecule tumbles more slowly, as on binding a larger partner.

A further data set concerns Panc-Tu-I cells. The experiment in a line: Real time cell analysis (RTCA) proliferation. It counts as cell-based, human. The protocol:
(§3) Panc-TU-1, MiaPaCa-2, PANC-1 and BxPC-3 cell lines were cultured in DMEM supplemented with 10% fetal calf serum, 1% L-glutamine (PAN-Biotech) and 1% non-essential amino acids (PAN-Biotech). The cells were maintained in a humidified incubator at 37° C. and 5% CO2. For microscopy, cells were seeded in four-well Lab-Tek chambers (Thermo Scientific) in DMEM without phenol red, supplemented with 25 mM HEPES. Transfection was performed with either Effectene (Qiagen) or Lipofectamine 2000 (Invitrogen). RTCA measurements of Panc-TU-1, MiaPaCa-2, PANG-1 and BxPC-3 cell lines were performed on a Dual Plate xCELLigence instrument (Roche Applied Science, Indianapolis, Ind.). This device measures a dimensionless cell index which is based on impedance. […] After seeding, cells were allowed to settle for 15 min at room temperature before insertion into the xCELLigence instrument in a humidified incubator at 37° C. with 5% CO2. […] The impedance was measured in 15 min intervals for up to 100 h. Assays were performed in triplicates, each containing two technical duplicates. The cell index was normalized to 1 at the time point of drug administration.

A further data set has as its system MiaPaCa-2 cells. The data set is described as follows: Real time cell analysis (RTCA) proliferation. It counts as cell-based, human. The procedure: as §3
The target of data set [4] is interaction between mCherry-PDE6δ and mCitrine-RheB (Homo sapiens (Human), UniProt O43924). The experiment in a line: FLIM-FRET of mCitrine-RheB and mCherry-PDE6δ interaction in living MDCK cells. It counts as cell-based. Particulars: fit of dose-response of interacting fraction α, ± s.e.m., read-out: apparent "in-cell" KD.
The test system of data set [5] is colorectal cancer cell lines (HCT-116, Hke3, SW480, Hkh2, DiFi, HT29). The data set is described as follows: Apoptosis / cell viability assay (7-AAD staining, flow cytometry). It counts as cell-based, human. Particulars: all tested cell lines (Hkh2, DiFi, HT29). The protocol:
Apoptosis assays are performed on a LSR II flow cytometer (BD Bio-science). For this, cells are seeded in 6-well plates with an amount of 2×10^5 cells per well. Cells are treated with different concentrations of compound 19 (Deltasonamide 2) for 24 h. DMSO is used as a control. Subsequently, the supernatant is collected in FACS vials and the cells are washed with 1 mL PBS. Afterwards, cells are detached with 0.5 mL Accutase™ (EMD Millipore Corporation). The detached cells are resuspended in 1 mL PBS and transferred to the respective FACS vials. The vials are centrifuged at 200 g for 5 min. The supernatant is discarded and the cells are washed twice with PBS. Cell pellets are re-suspended in 100 μL PBS containing 5 μL of 7-AAD. Samples are vortexed and incubated in the dark at RT for 15 min. Afterwards, 200 μL PBS are added and the samples are transferred to fresh FACS vials through filter lids. The samples are measured within one hour after transfer using 488 nm as excitation wave length and the emission filter 695/40. The measurements are acquired and gated with the BD FACSDiva™ software.
For orientation: In flow cytometry, cells or beads pass a laser one at a time.

For data set [6], the system named is mCitrine-KRas in MiaPaCa-2 cells. The data set is described as follows: KRas localization analysis by confocal microscopy. Particulars: 5 μM; MiaPaCa-2 cells ectopically expressing mCitrine-KRas. Format: cell-based, human. The procedure:
Panc-TU-1, MiaPaCa-2, PANC-1 and BxPC-3 cell lines were cultured in DMEM supplemented with 10% fetal calf serum, 1% L-glutamine (PAN-Biotech) and 1% non-essential amino acids (PAN-Biotech). The cells were maintained in a humidified incubator at 37° C. and 5% CO2. For microscopy, cells were seeded in four-well Lab-Tek chambers (Thermo Scientific) in DMEM without phenol red, supplemented with 25 mM HEPES. Transfection was performed with either Effectene (Qiagen) or Lipofectamine 2000 (Invitrogen). Confocal images were acquired with a confocal laser-scanning microscope (FV1000, Olympus). For detection of mCitrine-RheB and mCitrine-KRas, the sample was excited using the 488 nm wavelength of an argon laser. Fluorescence signal was collected through an oil immersion objective (×60/1.35 UPlanSApo, Olympus) and spectrally filtered by a band pass filter from 500 nm to 550 nm. For detection of mCherry-PDEδ, a 561 nm diode laser was used for excitation. The fluorescence emission was spectrally filtered by a band pass filter from 600 to 700 nm. Confocal images of cells were segmented into plasma membrane and cytoplasm whereby the plasma membrane segment contained one third of all pixels. The mean intensity of plasma membrane and cytoplasm were normalized to the total mean intensity of each cell at each time point (FIG. 4C).

Data set [7] concerns the target RPL31 (Ribosomal Protein L31) (Homo sapiens (Human), UniProt P62899). The experiment in a line: Cellular thermal shift assay / thermal protein profiling in Jurkat cell lysate. Particulars: read-out: shift in melting temperature.
In data set [8] the target is T1, PDEδ. The description is as above. Particulars: 1 μM.
The subject of the next data set is Caco-2 cells. The data set is described as follows: in vitro. Particulars: 10 μM, 2 hours, 37° C. The protocol:
as §1, §2

[9] abbreviates: even at submicromolar concentrations.

Take `CNc1nccc(CN(CC2CCNCC2)S(=O)(=O)c2ccc(S(=O)(=O)N(Cc3ccc(Cl)cc3)C3CCCC3)cc2)n1` [Compound 16, N1-(4-Chlorobenzyl)-N1-cyclopentyl-N4-((2-(methylamino)pyrimidin-4-yl)methyl)-N4-(piperidin-4-ylmethyl)benzene-1,4-disulfonamide]: in the data set “in vitro”, the Papp A→B at 2 h, 10 µM was 1.6 ×10⁻⁶ cm/s and the Papp B→A at 2 h, 10 µM was 13.7 ×10⁻⁶ cm/s. Also, in [1], the “concentration up to which hPMBCs proliferation is not impaired” value is ≥ 30 µM.

`CNc1nccc(CN([C@H]2CC[C@H](N)CC2)S(=O)(=O)c2ccc(S(=O)(=O)N(Cc3ccc(Cl)cc3)C3CCCC3)cc2)n1` [Compound 19, N1-((trans)-4-aminocyclohexyl)-N4-(4-chlorobenzyl)-N4-cyclopentyl-N1-((2-(methylamino)pyrimidin-4-yl)methyl)benzene-1,4-disulfonamide] registered a Papp A→B at 2 h, 10 µM in the data set “in vitro” of 0.9 ×10⁻⁶ cm/s. In addition, in “in vitro”, the Papp B→A at 2 h, 10 µM stood at 2.7 ×10⁻⁶ cm/s. Moreover, in “in vitro”, the efflux ratio at 2 h, 10 μM was determined as 2.9. The “proliferation (RTCA)” value in data set [2] (DiFi, HCT-116, Hke3, Hkh2, HT29 and SW480, even at lower micromolar concentrations) is recorded as “strongly reduced proliferation”; in the data set with Panc-Tu-I cells (setting [9]) it was “strongly reduced proliferation”; with MiaPaCa-2 cells (setting [9]) it was “strongly reduced proliferation”. Moreover, in data set [2] (cell lines containing oncogenic KRas mutations (HCT-116, Hke3, and SW480)), the “concentrations showing growth inhibitory effect and reduced cell viability” value was 1.5 to 3 µM. For the same compound, the Kd on PDEδ [3] was 1 to 30 nM; in [4] it was 61 ± 5 nM. Moreover, the reduction of growth entry in the data set on Panc-Tu-I cells (at 1.5 μM) is “about 50%”. The “reduction of growth rate” value in the data set on MiaPaCa-2 cells (at 750 nM) is “about 50%”. The “concentration up to which hPMBCs proliferation is not impaired” value in data set [1] is ≥ 30 µM. The “concentration showing unspecific toxicity” value in data set [5] was “above 6 μM”. Further, the “KRas plasma membrane localization” value in data set [6] is recorded as “loss of KRas plasma membrane (PM) localization”.

Regarding `CNc1cc(CN(CC2CCNCC2)S(=O)(=O)c2ccc(S(=O)(=O)N(Cc3ccc(Cl)cc3)C3CCCC3)cc2)ccc1C(=O)O` [Compound 21, 4-(((4-(N-(4-chlorobenzyl)-N-cyclopentylsulfamoyl)-N-(piperidin-4-ylmethyl)phenyl)sulfonamido)methyl)-2-(methylamino)benzoic Acid], in “in vitro”, the Papp A→B at 2 h, 10 µM was 0.4 ×10⁻⁶ cm/s; the Papp B→A at 2 h, 10 µM came out at 0.5 ×10⁻⁶ cm/s; the efflux ratio at 2 h, 10 μM stood at 1.1. Besides, at PDEδ [3], the Kd was 1 to 30 nM.

In the case of `Nc1cc(CN(CC2CCNCC2)S(=O)(=O)c2ccc(S(=O)(=O)N(Cc3ccc(Cl)cc3)C3CCCC3)cc2)ccc1C(=O)O` [Compound 22, 2-amino-4-(((4-(N-(4-chlorobenzyl)-N-cyclopentylsulfamoyl)-N-(piperidin-4-ylmethyl)phenyl)sulfonamido)methyl)benzoic Acid], the ΔTm at 1 µM in data set [7] stood at 3 °C. For the same compound, the “selectivity of protein engagement (only PDE6δ and RPL31 engaged)” value at PDEδ [8] (5492 proteins identified) is on record as “very selective inhibitor”. Moreover, on PDEδ [8] ([…]), the “higher signal intensities of soluble PDEδ compared to DMSO controls” value is on record as 26-28%. In addition, in “in vitro”, the Papp A→B at 2 h, 10 µM was 0.9 ×10⁻⁶ cm/s; the Papp B→A at 2 h, 10 µM stood at 0.6 ×10⁻⁶ cm/s; the efflux ratio at 2 h, 10 μM was 0.6. The Kd on PDEδ [3] was 1 to 30 nM.

Consider `O=S(=O)(c1ccc(S(=O)(=O)N(Cc2ccc(Cl)cc2)C2CCCC2)cc1)N(Cc1ccccc1)CC1CCNCC1` [Compound 44, N1-Benzyl-N4-(4-chlorobenzyl)-N4-cyclopentyl-N1-(piperidin-4-ylmethyl)benzene-1,4-disulfonamide], for which, in the data set “in vitro”, the Papp A→B at 2 h, 10 µM turned out to be 0.6 ×10⁻⁶ cm/s; the Papp B→A at 2 h, 10 µM is 0.6 ×10⁻⁶ cm/s; the efflux ratio at 2 h, 10 μM worked out at 0.9. For the same compound, the Kd on PDEδ [3] is 1 to 30 nM.

As for `O=S(=O)(NC1CCCC1)c1ccc(S(=O)(=O)N(Cc2ccccc2)Cc2ccccc2Cl)cc1` [Compound 98, N1-benzyl-N1-(2-chlorobenzyl)-N4-cyclopentylbenzene-1,4-disulfonamide], the Kd at PDEδ [3] is 1 to 30 nM.

As for `O=S(=O)(NCC1CCCO1)c1ccc(S(=O)(=O)N(Cc2ccc(Cl)cc2)Cc2ccco2)cc1` (stereo not drawn) [Compound 99, N1-(4-chlorobenzyl)-N1-(furan-2-ylmethyl)-N4-((tetrahydrofuran-2-yl)methyl)benzene-1,4-disulfonamide], the Kd at PDEδ [3] lay in the range of 100 to 1000 nM.

Regarding `O=S(=O)(NCc1ccccc1)c1ccc(S(=O)(=O)N(Cc2ccc(Cl)cc2)C2CCCC2)cc1` [Compound 100, N1-benzyl-N4-(4-chlorobenzyl)-N4-cyclopentylbenzene-1,4-disulfonamide], on PDEδ [3], the Kd lay in the range of 30 to 100 nM.

On to `c1ccc(Cn2c(-c3ccc(OC[C@H](C4CCNCC4)n4c(-c5ccccc5)nc5ccccc54)cc3)nc3ccccc32)cc1` [Deltarasin, reference compound], for which, in the data set with Caco-2 cells, the “Caco-2 pH 6.5/7.4 Papp A→B Arith. Mean” value was 1.0 10^−6 cm/s and the “Caco-2 pH 6.5/7.4 Papp B→A Arith. Mean” value is listed as 5.1 10^−6 cm/s.

For the compound `Cc1ccc(-n2nc3c(=O)n(CCCC(=O)NCC(C)c4ccccc4)nc(C)c3c2C)cc1` (stereo not drawn) [Deltazinone 1, reference compound], in the data set on Caco-2 cells, the “Caco-2 pH 6.5/7.4 Papp A→B Arith. Mean” value is listed as 41.1 10^−6 cm/s and the “Caco-2 pH 6.5/7.4 Papp B→A Arith. Mean” value is 25.1 10^−6 cm/s.
